Laboratory results reported in patent US11771706B2, “Oral solutions comprising fludrocortisone acetate” (LABOMED PHARMACEUTICAL COMPANY S.A., priority 2020, dated 2023).

Legend:
[1] = Storage stability of aqueous liquid compositions of fludrocortisone acetate (Example 1), HPLC; type: physicochemical; settings: conclusion from Tables 1a-1c, 40° C., 75% RH, three months
Method: Storage conditions of temperature (40° C.) and relative humidity (75%) applied for a period of three months. Quantification of fludrocortisone acetate and its degradation impurities was performed by HPLC.

[2] = relative to cortisol; cited from earlier work

stability of fludrocortisone acetate in aqueous compositions [1]: unstable and easily hydrolyzed
Structure (SMILES): CC(=O)OCC(=O)[C@@]1(O)CC[C@H]2[C@@H]3CCC4=CC(=O)CC[C@]4(C)[C@@]3(F)[C@@H](O)C[C@@]21C [Fludrocortisone acetate]
glucocorticoid potency [2]: 10 times
